These results are taken from ChEMBL document CHEMBL6103603, “Novel Imidazo[4,5-c]pyridine Compounds as TLR7 Agonists for Treating Cancer” (ACS Med Chem Lett, 2025).

Each structure is given as a SMILES string.

The target in this experiment is T1, Toll-like receptor 7 (Homo sapiens, UniProt Q9NYK1).
T1 sequence (Q9NYK1 whole entry): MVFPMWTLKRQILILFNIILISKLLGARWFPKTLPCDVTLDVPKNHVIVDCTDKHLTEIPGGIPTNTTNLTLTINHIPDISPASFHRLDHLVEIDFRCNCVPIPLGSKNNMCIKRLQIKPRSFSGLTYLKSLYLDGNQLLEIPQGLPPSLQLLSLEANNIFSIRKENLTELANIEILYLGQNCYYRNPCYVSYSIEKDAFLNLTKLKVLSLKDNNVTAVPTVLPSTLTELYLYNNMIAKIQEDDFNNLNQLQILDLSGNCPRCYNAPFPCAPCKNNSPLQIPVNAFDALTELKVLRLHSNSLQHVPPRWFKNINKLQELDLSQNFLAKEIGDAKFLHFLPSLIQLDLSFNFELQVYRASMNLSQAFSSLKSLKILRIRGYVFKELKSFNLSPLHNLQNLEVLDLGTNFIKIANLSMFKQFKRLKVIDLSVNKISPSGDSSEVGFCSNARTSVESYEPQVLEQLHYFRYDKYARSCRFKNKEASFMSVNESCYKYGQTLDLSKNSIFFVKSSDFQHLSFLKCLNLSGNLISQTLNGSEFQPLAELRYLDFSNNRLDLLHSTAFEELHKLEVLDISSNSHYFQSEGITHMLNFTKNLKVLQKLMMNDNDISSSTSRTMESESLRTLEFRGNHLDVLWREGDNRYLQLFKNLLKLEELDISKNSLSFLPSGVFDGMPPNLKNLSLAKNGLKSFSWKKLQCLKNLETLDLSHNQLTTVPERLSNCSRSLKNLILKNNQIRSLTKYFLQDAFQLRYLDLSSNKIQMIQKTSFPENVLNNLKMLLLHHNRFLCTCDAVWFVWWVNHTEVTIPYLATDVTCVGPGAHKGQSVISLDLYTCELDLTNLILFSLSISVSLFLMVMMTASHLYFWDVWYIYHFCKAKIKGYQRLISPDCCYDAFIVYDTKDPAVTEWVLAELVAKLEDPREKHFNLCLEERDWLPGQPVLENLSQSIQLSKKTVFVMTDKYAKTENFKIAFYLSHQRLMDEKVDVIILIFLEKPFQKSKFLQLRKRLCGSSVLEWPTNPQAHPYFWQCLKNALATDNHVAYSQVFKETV
The experiment is described as follows: Agonist activity at TLR7 in HEK-Blue hTLR7 cells expressing NF-kappaB/AP-1 inducible SEAP reporter gene using Quanti-blue as substrate preincubated for 20 hrs followed by substrate addition and measured after 1 hr by spectrophotometric analysis. Type of experiment: cell-based.

As to `CCOCc1nc2c(N)nc(C)c(Sc3ccc(CN(C)C)c(O)c3)c2[nH]1`, the half-maximal effective concentration (EC50) was found to be 10 nM.
